For 26 compounds, IC50 results are on record in US10239843B2 (CANCER RESEARCH TECHNOLOGY LIMITED, priority 2014, dated 2019).

One assay deals with Human Full Length PARG (Homo sapiens (Human), UniProt Q86W56). The experiment in a line: PARG enzyme assay (TR-FRET). It counts as biochemical. A general note: In TR-FRET formats the signal depends on donor and acceptor labels being close together.
Another assay addresses Human Full Length ARH3 (Homo sapiens (Human), UniProt Q9NX46). In words: ARH3 in vitro selectivity assay (TR-FRET). It counts as biochemical. The following applies: read-out: ARH3 Biochem IC50.
Assay [1] addresses Human High specific Activity PARP1 (Homo sapiens (Human), UniProt P09874). In words: PARP1 in vitro selectivity assay (histone PARylation, luminescence). It counts as biochemical. The following applies: read-out: PARP1 Biochem IC50. As for the experimental part: PARP1 In vitro selectivity assays were conducted as a 10 ul reaction volume in a NUNC Maxisorp 384-well assay plate pre-coated in-house with Histones. […] The wells were then washed with PBS/0.1% Triton X100. PARP1 activity was then detected by measuring the extent of PARylation. […] Luminescence signal was then measured immediately.

In a further assay the test system is PARG in HeLa cell line. The experiment in a line: PARG cell assay (PAR chain immunofluorescence after MMS). It counts as cell-based. To be noted: HeLa cells. Summed up: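 Nuclear poly(ADP-ribose) chains in HeLa cells are read by indirect immunofluorescence with a mouse anti-PAR antibody applied overnight at 4° C after fixing and permeabilising. Cells get 1 h of compound, then 50 μg/mL MMS (final) for another hour. PAR persisting at that point reflects PARG inhibition.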

The mark [2] stands for this setting: read-out: PARG Biochem IC50 Geomean.
The mark [3] stands for this setting: MMS 50 μg/mL, read-out: PARG Cell IC50 Geomean.
[4] abbreviates: Homo sapiens, MMS 50 μg/mL, read-out: PARG Cell IC50 Geomean.
The mark [5] stands for this setting: Homo sapiens, MMS treatment, read-out: PARG Cell IC50.
The mark [6] stands for this setting: MMS treatment, read-out: PARG Cell IC50.

Read-outs that look alike come from different tables or passages of the source.

Human Full Length ARH3, sequence (Q9NX46 whole entry): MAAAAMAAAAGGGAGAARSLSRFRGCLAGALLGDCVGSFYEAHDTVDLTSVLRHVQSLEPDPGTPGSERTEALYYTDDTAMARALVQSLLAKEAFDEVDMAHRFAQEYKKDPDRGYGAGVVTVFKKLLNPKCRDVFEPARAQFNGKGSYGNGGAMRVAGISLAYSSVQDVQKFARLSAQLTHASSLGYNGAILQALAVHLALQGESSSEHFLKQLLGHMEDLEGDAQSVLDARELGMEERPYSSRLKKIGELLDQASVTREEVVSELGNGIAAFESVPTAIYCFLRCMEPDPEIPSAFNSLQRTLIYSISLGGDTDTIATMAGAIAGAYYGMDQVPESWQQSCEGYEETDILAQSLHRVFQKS
Human High specific Activity PARP1, sequence (P09874 whole entry): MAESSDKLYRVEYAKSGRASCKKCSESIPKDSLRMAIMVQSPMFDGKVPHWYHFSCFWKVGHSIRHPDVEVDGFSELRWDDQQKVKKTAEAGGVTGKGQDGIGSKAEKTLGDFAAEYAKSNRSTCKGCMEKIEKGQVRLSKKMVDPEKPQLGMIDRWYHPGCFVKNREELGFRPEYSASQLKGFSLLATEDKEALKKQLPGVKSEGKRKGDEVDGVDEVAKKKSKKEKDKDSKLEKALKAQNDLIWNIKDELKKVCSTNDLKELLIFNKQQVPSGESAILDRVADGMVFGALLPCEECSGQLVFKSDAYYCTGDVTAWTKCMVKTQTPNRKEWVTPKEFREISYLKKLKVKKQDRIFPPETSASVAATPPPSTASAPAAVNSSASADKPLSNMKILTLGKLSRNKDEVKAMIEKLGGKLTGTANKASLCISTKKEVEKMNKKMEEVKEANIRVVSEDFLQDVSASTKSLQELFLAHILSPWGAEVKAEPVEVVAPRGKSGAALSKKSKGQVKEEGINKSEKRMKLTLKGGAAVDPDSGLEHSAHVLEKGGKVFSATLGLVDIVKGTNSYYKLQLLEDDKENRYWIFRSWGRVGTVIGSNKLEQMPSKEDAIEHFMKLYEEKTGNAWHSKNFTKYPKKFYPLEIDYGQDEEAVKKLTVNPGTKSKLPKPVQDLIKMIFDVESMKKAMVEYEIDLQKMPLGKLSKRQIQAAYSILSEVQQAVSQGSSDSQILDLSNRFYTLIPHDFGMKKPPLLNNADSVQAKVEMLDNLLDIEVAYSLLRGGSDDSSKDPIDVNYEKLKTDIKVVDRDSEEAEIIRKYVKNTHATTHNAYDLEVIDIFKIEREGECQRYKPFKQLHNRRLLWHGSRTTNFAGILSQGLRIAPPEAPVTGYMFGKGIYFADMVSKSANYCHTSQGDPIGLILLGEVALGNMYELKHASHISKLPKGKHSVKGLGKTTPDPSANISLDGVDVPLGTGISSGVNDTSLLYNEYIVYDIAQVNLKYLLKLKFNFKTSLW
Human Full Length PARG, sequence (Q86W56 whole entry): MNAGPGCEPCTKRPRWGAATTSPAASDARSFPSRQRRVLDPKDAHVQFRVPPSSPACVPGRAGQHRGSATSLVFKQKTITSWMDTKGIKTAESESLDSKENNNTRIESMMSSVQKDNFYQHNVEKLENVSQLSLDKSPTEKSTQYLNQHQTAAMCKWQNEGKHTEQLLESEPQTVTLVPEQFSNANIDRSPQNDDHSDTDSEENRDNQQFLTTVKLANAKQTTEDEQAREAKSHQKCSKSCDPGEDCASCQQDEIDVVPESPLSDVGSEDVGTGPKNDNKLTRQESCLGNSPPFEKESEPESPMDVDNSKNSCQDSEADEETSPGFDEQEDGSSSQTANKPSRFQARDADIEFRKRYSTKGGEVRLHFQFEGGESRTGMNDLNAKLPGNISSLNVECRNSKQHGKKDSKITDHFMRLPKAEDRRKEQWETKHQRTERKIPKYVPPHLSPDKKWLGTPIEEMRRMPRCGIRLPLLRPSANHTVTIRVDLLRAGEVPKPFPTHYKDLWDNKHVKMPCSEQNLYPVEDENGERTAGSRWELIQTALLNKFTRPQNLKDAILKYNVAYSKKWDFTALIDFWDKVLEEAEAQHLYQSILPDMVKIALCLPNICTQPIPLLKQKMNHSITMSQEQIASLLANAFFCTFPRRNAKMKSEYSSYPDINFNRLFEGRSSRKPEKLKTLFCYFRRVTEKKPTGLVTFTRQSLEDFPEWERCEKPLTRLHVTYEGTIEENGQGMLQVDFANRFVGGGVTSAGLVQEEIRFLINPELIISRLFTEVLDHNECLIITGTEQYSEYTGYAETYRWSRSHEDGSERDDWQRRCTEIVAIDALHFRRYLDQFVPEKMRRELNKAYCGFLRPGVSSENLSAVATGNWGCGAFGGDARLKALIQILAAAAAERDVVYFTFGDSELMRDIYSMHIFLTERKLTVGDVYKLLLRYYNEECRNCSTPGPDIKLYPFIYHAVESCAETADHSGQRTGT
Procedure for Human Full Length ARH3: ARH3 In vitro selectivity assays were conducted in a total volume of 15 ul in a standard 384 well format.

Usually IC50 stands for the concentration needed to halve the response being measured. Turning to `Cn1c(=O)c(=O)n(CC2CC2)c2ccc(S(=O)(=O)NC3(C)CC3)cc21` [Example 22, 1-(Cyclopropylmethyl)-4-methyl-N-(1-methylcyclopropyl)-2,3-dioxo-quinoxaline-6-sulfonamide], the IC50 on Human Full Length PARG (setting [2]) was 1020 nM; at Human Full Length ARH3, > 150000 nM; in assay [1] it was > 150000 nM.

Turning to `CNc1nc2ccc(S(=O)(=O)NC3(C)CC3)cc2n(C)c1=O` [Example 41, 4-Methyl-2-(methylamino)-N-(1-methylcyclopropyl)-3-oxo-quinoxaline-6-sulfonamide], the IC50 on Human Full Length PARG (setting [2]) is 5550 nM; on Human Full Length ARH3 it was > 150000 nM; in assay [1] it was > 150000 nM.

`Cn1c(C2CC2)nc2ccc(S(=O)(=O)NC3(C)CC3)cc2c1=O` [Example 80]: the IC50 is 2180 nM at Human Full Length PARG (setting [2]), > 150000 nM on Human Full Length ARH3 and > 150000 nM in assay [1].

Take `CC1(NS(=O)(=O)c2ccc3nc(N4CCCC4)[nH]c(=O)c3c2)CC1` [Example 98]: the IC50 was 9440 nM on Human Full Length PARG (setting [2]), > 150000 nM on Human Full Length ARH3 and > 150000 nM in assay [1].

Take `Cc1nc(C)c(Cn2c(=O)n(C)c(=O)c3cc(S(=O)(=O)NC4(C)CC4)ccc32)s1` [Example 133]: the IC50 at Human Full Length PARG (setting [2]) is 184 nM; in the assay on PARG in HeLa cell line (setting [3]), 124 nM; at Human Full Length ARH3, > 100000 nM; in assay [1], > 150000 nM.

Take `Cc1ncc(Cn2c(=O)c3cc(S(=O)(=O)NC4(C)CC4)ccc3n(CC3CC3)c2=O)s1` [Example 156]: the IC50 at Human Full Length PARG (setting [2]) was 19 nM; in the assay with PARG in HeLa cell line (setting [4]) it was 28 nM; at Human Full Length ARH3, > 100000 nM; in assay [1] it was > 150000 nM.

On to `Cc1noc(C)c1Cn1c(=O)c2cc(S(=O)(=O)NC3(C)CC3)ccc2n(CC2CC2)c1=O` [Example 158], for which the IC50 on Human Full Length PARG (setting [2]) was 92 nM; in the assay with PARG in HeLa cell line (setting [3]) it was 88 nM; on Human Full Length ARH3, > 100000 nM; in assay [1], > 150000 nM.

Take `C#CCn1c(=O)n(Cc2cnc(C)s2)c(=O)c2cc(S(=O)(=O)NC3(C)CC3)ccc21` [Example 161]: the IC50 at Human Full Length PARG (setting [2]) was 45 nM; with PARG in HeLa cell line (setting [3]) it was 82 nM; at Human Full Length ARH3 it was > 100000 nM; in assay [1] it was > 150000 nM.

With `Cc1ncc(Cn2c(=O)c3cc(S(=O)(=O)NC4(C)CC4)ccc3n(Cc3sc(C)nc3C)c2=O)s1` [Example 162], the IC50 at Human Full Length PARG (setting [2]) is 4 nM; in the assay with PARG in HeLa cell line (setting [3]) it was 9 nM; at Human Full Length ARH3 it was > 100000 nM; in assay [1], > 150000 nM.

Regarding `Cc1nc(C)c(Cn2c(=O)n(Cc3c(C)noc3C)c(=O)c3cc(S(=O)(=O)NC4(C)CC4)ccc32)s1` [Example 165], the IC50 was 33 nM at Human Full Length PARG (setting [2]), 63 nM in the assay with PARG in HeLa cell line (setting [4]), > 100000 nM on Human Full Length ARH3 and > 150000 nM in assay [1].

For `Cc1cc(Cn2c(=O)n(Cc3cnn(C)c3)c(=O)c3cc(S(=O)(=O)NC4(C)CC4)ccc32)n(C)n1` [Example 173], the IC50 at Human Full Length PARG (setting [2]) is 18 nM; with PARG in HeLa cell line (setting [3]), 88 nM; on Human Full Length ARH3, > 150000 nM; in assay [1] it was > 150000 nM.

Consider `Cc1cc(Cn2c(=O)c3cc(S(=O)(=O)NC4(C)CC4)ccc3n(C)c2=O)on1` [Example 180], for which the IC50 is 426 nM on Human Full Length PARG (setting [2]), 460 nM with PARG in HeLa cell line (setting [4]), > 150000 nM on Human Full Length ARH3 and > 150000 nM in assay [1].

On to `Cc1cc(Cn2nc(Cc3ccccc3)c3ccc(S(=O)(=O)NC4(C)CC4)cc3c2=O)on1` [Example 298], for which the IC50 at Human Full Length PARG (setting [2]) was 648 nM; on Human Full Length ARH3, > 150000 nM; in assay [1], > 150000 nM.

Regarding `Cc1cc(Cn2nc(CC3CCOCC3)c3ccc(S(=O)(=O)NC4(C)CC4)cc3c2=O)on1` [Example 308], the IC50 on Human Full Length PARG (setting [2]) was 274 nM; in the assay on PARG in HeLa cell line (setting [3]) it was 201 nM; on Human Full Length ARH3, > 150000 nM; in assay [1] it was > 150000 nM.

In the case of `Cc1cc(Cn2cc(C(=O)C3CC3)c3ccc(S(=O)(=O)NC4(C)CC4)cc3c2=O)on1` [Example 311, 4-(Cyclopropanecarbonyl)-N-(1-methylcyclopropyl)-2-[(3-methylisoxazol-5-yl)methyl]-1-oxo-isoquinoline-7-sulfonamide], the IC50 was 549 nM at Human Full Length PARG (setting [2]), > 150000 nM on Human Full Length ARH3 and > 150000 nM in assay [1].

Turning to `Cc1nc(C)c(Cn2c(=O)n(Cc3cnn(C)c3)c(=O)c3cc(S(=O)(=O)NC4(CF)CC4)ccc32)s1` [Example 463, 1-[(2,4-Dimethylthiazol-5-yl)methyl]-N-[1-(fluoromethyl)cyclopropyl]-3-[(1-methylpyrazol-4-yl)methyl]-2,4-dioxo-quinazoline-6-sulfonamide], the IC50 on Human Full Length PARG (read-out: PARG Biochem IC50) is 6 nM; in the assay with PARG in HeLa cell line (setting [5]), 9 nM; on Human Full Length ARH3, > 150000 nM; in assay [1] it was > 150000 nM.

For the compound `Cn1cc(Cn2c(=O)c3cc(S(=O)(=O)NC4(CF)CC4)ccc3n(Cc3ccns3)c2=O)cn1` [Example 578, N-[1-(Fluoromethyl)cyclopropyl]-1-(isothiazol-5-ylmethyl)-3-[(1-methylpyrazol-4-yl)methyl]-2,4-dioxo-quinazoline-6-sulfonamide], the results for the IC50 on Human Full Length PARG (read-out: PARG Biochem IC50) and at Human Full Length ARH3 were 10 nM and > 150000 nM, respectively.

As to `Cc1oncc1Cn1c(=O)n(Cc2cnn(C)c2)c(=O)c2cc(S(=O)(=O)NC3(CF)CC3)ccc21` [Example 579, N-[1-(Fluoromethyl)cyclopropyl]-1-[(5-methylisoxazol-4-yl)methyl]-3-[(1-methylpyrazol-4-yl)methyl]-2,4-dioxo-quinazoline-6-sulfonamide], the IC50 at Human Full Length PARG (read-out: PARG Biochem IC50) is 9 nM; on Human Full Length ARH3 it was > 150000 nM.

For the compound `CCn1c(=O)n(Cc2nnc(C)s2)c(=O)c2cc(S(=O)(=O)NC3(CF)CC3)ccc21` [Example 602, 1-Ethyl-N-[1-(fluoromethyl)cyclopropyl]-3-[(5-methyl-1,3,4-thiadiazol-2-yl)methyl]-2,4-dioxo-quinazoline-6-sulfonamide], the half-maximal inhibitory concentration (IC50) at Human Full Length PARG (read-out: PARG Biochem IC50) was 131 nM; in the assay with PARG in HeLa cell line (setting [5]) it was 135 nM; on Human Full Length ARH3 it was > 150000 nM; in assay [1], > 150000 nM.

With `CCn1c(=O)n(Cc2nnc(C)s2)c(=O)c2cc(S(=O)(=O)NC3(C)CC3)ccc21` [Example 614, 1-Ethyl-N-(1-methylcyclopropyl)-3-[(5-methyl-1,3,4-thiadiazol-2-yl)methyl]-2,4-dioxo-quinazoline-6-sulfonamide], the results for the IC50 on Human Full Length PARG (read-out: PARG Biochem IC50), with PARG in HeLa cell line (setting [6]) and at Human Full Length ARH3 were 239 nM, 122 nM and > 150000 nM, respectively.

Take `Cc1cc(Cn2c(=O)c3cc(S(=O)(=O)NC4(CF)CC4)ccc3n(Cc3sc(C)nc3C)c2=O)on1` [Example 616, 1-[(2,4-Dimethylthiazol-5-yl)methyl]-N-[1-(fluoromethyl)cyclopropyl]-3-[(3-methylisoxazol-5-yl)methyl]-2,4-dioxo-quinazoline-6-sulfonamide]: the IC50 is 17 nM at Human Full Length PARG (read-out: PARG Biochem IC50), 25 nM in the assay on PARG in HeLa cell line (setting [5]) and > 150000 nM on Human Full Length ARH3.

With `CCCCn1c(=O)n(Cc2cnn(C)c2)c(=O)c2cc(S(=O)(=O)NC3(CF)CC3)ccc21` [Example 617, 1-Butyl-N-[1-(fluoromethyl)cyclopropyl]-3-[(1-methylpyrazol-4-yl)methyl]-2,4-dioxo-quinazoline-6-sulfonamide], the IC50 was 39 nM on Human Full Length PARG (read-out: PARG Biochem IC50), 37 nM in the assay on PARG in HeLa cell line (setting [5]) and > 150000 nM at Human Full Length ARH3.

Take `Cc1cc(Cn2c(=O)c3cc(S(=O)(=O)NC4(CF)CC4)ccc3n(C)c2=O)sn1` [Example 625, N-[1-(Fluoromethyl)cyclopropyl]-1-methyl-3-[(3-methylisothiazol-5-yl)methyl]-2,4-dioxo-quinazoline-6-sulfonamide]: the IC50 was 597 nM on Human Full Length PARG (read-out: PARG Biochem IC50), 730 nM with PARG in HeLa cell line (setting [5]) and > 150000 nM at Human Full Length ARH3.

With `Cc1nnc(Cn2c(=O)c3cc(S(=O)(=O)NC4(CF)CC4)ccc3n(CCF)c2=O)s1` [Example 629, 1-(2-Fluoroethyl)-N-[1-(fluoromethyl)cyclopropyl]-3-[(5-methyl-1,3,4-thiadiazol-2-yl)methyl]-2,4-dioxo-quinazoline-6-sulfonamide], the IC50 at Human Full Length PARG (read-out: PARG Biochem IC50) is 82 nM; in the assay on PARG in HeLa cell line (setting [5]), 226 nM; on Human Full Length ARH3, > 150000 nM.

Turning to `Cc1nnc(Cn2c(=O)c3cc(S(=O)(=O)NC4(CF)CC4)ccc3n(Cc3cnn(C)c3)c2=O)s1` [Example 630, N-[1-(Fluoromethyl)cyclopropyl]-1-[(1-methylpyrazol-4-yl)methyl]-3-[(5-methyl-1,3,4-thiadiazol-2-yl)methyl]-2,4-dioxo-quinazoline-6-sulfonamide], the IC50 on Human Full Length PARG (read-out: PARG Biochem IC50) was 16 nM; in the assay with PARG in HeLa cell line (setting [6]), 542 nM; on Human Full Length ARH3 it was > 150000 nM.

Take `Cc1nc(Cn2c(=O)n(Cc3nnc(C)s3)c(=O)c3cc(S(=O)(=O)NC4(CF)CC4)ccc32)no1` [Example 631, N-[1-(Fluoromethyl)cyclopropyl]-1-[(5-methyl-1,2,4-oxadiazol-3-yl)methyl]-3-[(5-methyl-1,3,4-thiadiazol-2-yl)methyl]-2,4-dioxo-quinazoline-6-sulfonamide]: the IC50 at Human Full Length PARG (read-out: PARG Biochem IC50) is 121 nM; with PARG in HeLa cell line (setting [5]), 706 nM; on Human Full Length ARH3, > 150000 nM.
